What all share (type): ADME, organism-based
Data set [1] in a line: Half life in overnight fasted C57BL/6J mouse at 20 mg/kg, po administered via gavage by LC-MS/MS analysis. The following applies: in vivo.
Data set [2] in a line: Cmax in overnight fasted C57BL/6J mouse at 20 mg/kg, po administered via gavage by LC-MS/MS analysis. Also noted: dose 20 mg/kg, route oral. The following applies: in vivo.
Data set [3] in a line: AUClast in overnight fasted C57BL/6J mouse at 20 mg/kg, po administered via gavage after 24 hrs by LC-MS/MS analysis. Details: dose 20 mg/kg, time < 24 hr, route oral. The following applies: in vivo.
A short description of data set [4]: Volume of distribution at steady state in overnight fasted C57BL/6J mouse at 5 mg/kg, iv by LC-MS/MS analysis. To be noted: in vivo, read-out: Vdss.
Data set [5] in a line: Clearance in overnight fasted C57BL/6J mouse at 5 mg/kg, iv by LC-MS/MS analysis. To be noted: in vivo.
The nature of data set [6]: Bioavailability in overnight fasted C57BL/6J mouse at 5 mg/kg, iv by LC-MS/MS analysis. To be noted: in vivo.
Data set [7] can be described thus: Plasma concentration in C57BL/6J mouse at 30 mg/kg, po measured at 2 hrs post dose by LC-MS/MS analysis.

The term half-life denotes the time needed for the level to fall by half in the phase considered. A lower half-life goes with rapid decline. One may read the Cmax as the highest concentration seen after dosing. What is called AUC(0-t) is the area under the concentration-time curve up to a stated or last time point. High values mean more exposure, low ones less exposure. As usually defined, the clearance is the rate of elimination divided by the concentration. By bioavailability is commonly meant the share of a dose that reaches the circulation, judged against a reference dose that is usually intravenous. `COc1ccc(C2(C)CCCc3nc(SCc4c(F)cc(OCCOCCOCCN(C)C)cc4F)n(-c4ccc(F)cc4)c32)cc1OC` (stereo not given): the half-life in data set [1] is 2.1 h. The molecule further returned a peak concentration (Cmax) in data set [2] of 2890 ng/mL. The same molecule yielded an exposure AUC(0-t) at 24 h in data set [3] of 9350 ng·h/mL. In addition, in data set [4], the Vd amounted to 0.947 L/kg. Besides, the clearance in data set [5] was 9.68 mL/min/kg. This molecule also returned a bioavailability in data set [6] of 27.5%. This molecule registered a concentration at 2 h in data set [7] of 2210 nM.

`COc1cc(C2(C)CCCc3nc(SCc4ncccn4)n(-c4ccc(F)cc4)c32)ccc1F` (stereo not given) returned a Cmax in data set [2] of 913 ng/mL. In data set [3], the area under the curve AUC(0-t) at 24 h was 785 ng·h/mL. Further, the Vd in data set [4] turned out to be 0.856 L/kg. The same molecule yielded a clearance in data set [5] of 45.3 mL/min/kg. Also, in data set [6], the bioavailability came out at 10.8%. In data set [7], this molecule came in with a concentration at 2 h of 280 nM.

In the case of `COc1cc(C2(C)CCCc3nc(SCc4c(F)ccc(OCCOCCOCCN(C)C)c4F)n(-c4ccc(F)cc4)c32)ccc1Cl` (stereo not given), the concentration at 2 h in data set [7] was 760 nM.

In data set [1], `COc1cc(C2(C)CCCc3nc(SCc4c(F)cc(OCCOCCOCCN(C)C)cc4F)n(-c4ccc(F)cc4)c32)ccc1F` (stereo not given) showed a half-life of 2 h. In data set [2], the highest concentration (Cmax) was 2410 ng/mL. In data set [3], the AUC(0-t) at 24 h was found to be 7160 ng·h/mL. In addition, the Vd in data set [4] was determined as 0.818 L/kg. In data set [5], the clearance turned out to be 10.2 mL/min/kg. The molecule also gave a bioavailability in data set [6] of 22.1%. Moreover, in data set [7], the concentration at 2 h is 2110 nM.

`COc1ccc(C2(C)CCCc3nc(SCc4ncccn4)n(-c4ccc(F)cc4)c32)cc1OC` (stereo not given) registered a concentration at 2 h in data set [7] of 100 nM.

In turn, `COc1cc(C2(C)CCCc3nc(SCc4c(F)cc(OCCOCCOCCN(C)C)cc4F)n(-c4ccc(F)cc4)c32)ccc1Cl` (stereo not given) had a half-life in data set [1] of 1.33 h. The molecule also returned a Cmax in data set [2] of 918 ng/mL. In addition, the area under the curve AUC(0-t) at 24 h in data set [3] came to 2540 ng·h/mL. In addition, the Vd in data set [4] is 1.63 L/kg. For the same molecule, the clearance in data set [5] was 18.1 mL/min/kg. The molecule also displayed a bioavailability in data set [6] of 13.9%. In data set [7], this molecule yielded a concentration at 2 h of 1610 nM.

`COc1cc(C2(C)CCCc3nc(SCc4ncccn4)n(-c4ccc(F)cc4)c32)ccc1Cl` (stereo not given) returned a Cmax in data set [2] of 507 ng/mL. For the same molecule, the area under the curve AUC(0-t) at 24 h in data set [3] came out at 527 ng·h/mL. Moreover, the Vd in data set [4] came out at 1.43 L/kg. In data set [5], this molecule came in with a clearance of 58.4 mL/min/kg. The bioavailability in data set [6] turned out to be 9.44%. The molecule further yielded a concentration at 2 h in data set [7] of 200 nM.

The record behind these values is ChEMBL document CHEMBL3997854, “Discovery of Orally Efficacious Tetrahydrobenzimidazoles as TGR5 Agonists for Type 2 Diabetes” (ACS Med Chem Lett, 2017).
